From PubChem BioAssay (NCI)
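All cell lines were grown in 96-well plates and treated with compound for 48 hours. At the GI50, growth is halved. Definition used: TGI = concentration required for complete inhibition of growth.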

Tests used:
Assay in all cases: NCI anticancer screen, dose series, 48 h
786-0 renal = test system: 786-0 renal
A498 renal = test system: A498 renal
A549 NSCLC = test system: A549 NSCLC
ACHN renal = test system: ACHN renal
BT-549 breast = test system: BT-549 breast
CAKI-1 renal = test system: CAKI-1 renal
CCRF-CEM leukemia = test system: CCRF-CEM leukemia
COLO 205 colon = test system: COLO 205 colon
DU-145 prostate = test system: DU-145 prostate
HCC-2998 colon = test system: HCC-2998 colon
HCT-116 colon = test system: HCT-116 colon
HCT-15 colon = test system: HCT-15 colon
HL-60(TB) leukemia = test system: HL-60(TB) leukemia
HOP-62 NSCLC = test system: HOP-62 NSCLC
HOP-92 NSCLC = test system: HOP-92 NSCLC
HS 578T breast = test system: HS 578T breast
HT29 colon = test system: HT29 colon
IGROV1 ovarian = test system: IGROV1 ovarian
K-562 leukemia = test system: K-562 leukemia
KM12 colon = test system: KM12 colon
LOX IMVI melanoma = test system: LOX IMVI melanoma
M14 melanoma = test system: M14 melanoma
MALME-3M melanoma = test system: MALME-3M melanoma
MCF7 breast = test system: MCF7 breast
MDA-MB-231 breast = test system: MDA-MB-231 breast
MDA-MB-435 = test system: MDA-MB-435
MOLT-4 leukemia = test system: MOLT-4 leukemia
NCI-H226 lung = test system: NCI-H226 lung
NCI-H23 lung = test system: NCI-H23 lung
NCI-H460 lung = test system: NCI-H460 lung
NCI-H522 lung = test system: NCI-H522 lung
NCI/ADR-RES ovarian = test system: NCI/ADR-RES ovarian
OVCAR-3 ovarian = test system: OVCAR-3 ovarian
OVCAR-4 ovarian = test system: OVCAR-4 ovarian
OVCAR-5 ovarian = test system: OVCAR-5 ovarian
OVCAR-8 ovarian = test system: OVCAR-8 ovarian
PC-3 prostate = test system: PC-3 prostate
RPMI-8226 leukemia = test system: RPMI-8226 leukemia
RXF 393 renal = test system: RXF 393 renal
SF-268 CNS = test system: SF-268 CNS
SF-295 CNS = test system: SF-295 CNS
SF-539 CNS = test system: SF-539 CNS
SK-MEL-2 melanoma = test system: SK-MEL-2 melanoma
SK-MEL-28 melanoma = test system: SK-MEL-28 melanoma
SK-MEL-5 melanoma = test system: SK-MEL-5 melanoma
SK-OV-3 ovarian = test system: SK-OV-3 ovarian
SN12C renal = test system: SN12C renal
SNB-19 CNS = test system: SNB-19 CNS
SNB-75 CNS = test system: SNB-75 CNS
SR leukemia = test system: SR leukemia
SW-620 colon = test system: SW-620 colon
T-47D breast = test system: T-47D breast
TK-10 renal = test system: TK-10 renal
U251 CNS = test system: U251 CNS
UACC-257 melanoma = test system: UACC-257 melanoma
UACC-62 melanoma = test system: UACC-62 melanoma
UO-31 renal = test system: UO-31 renal

CCN(CC)CCCCNc1ncc2cc(-c3cc(OC)cc(OC)c3)c(NC(=O)NC(C)(C)C)nc2n1
GI50 (786-0 renal): 5.42 µM | TGI (786-0 renal): 19.3 µM | GI50 (A498 renal): 0.0209 µM | TGI (A498 renal): 0.097 µM | GI50 (A549 NSCLC): 7.84 µM | TGI (A549 NSCLC): 23 µM | GI50 (ACHN renal): 3.92 µM | TGI (ACHN renal): 16.4 µM | GI50 (BT-549 breast): 2.15 µM | TGI (BT-549 breast): 18 µM | GI50 (CAKI-1 renal): 3.99 µM | TGI (CAKI-1 renal): 17 µM | GI50 (CCRF-CEM leukemia): 3.96 µM | TGI (CCRF-CEM leukemia): 66.1 µM | GI50 (COLO 205 colon): 8.08 µM | TGI (COLO 205 colon): 22.1 µM | GI50 (DU-145 prostate): 8.08 µM | TGI (DU-145 prostate): 22.9 µM | GI50 (HCC-2998 colon): 12.7 µM | TGI (HCC-2998 colon): 26 µM | GI50 (HCT-116 colon): 4.13 µM | TGI (HCT-116 colon): 16.3 µM | GI50 (HCT-15 colon): 3.63 µM | TGI (HCT-15 colon): 17.5 µM | GI50 (HL-60(TB) leukemia): 1.99 µM | TGI (HL-60(TB) leukemia): 4.8 µM | GI50 (HOP-62 NSCLC): 12.1 µM | TGI (HOP-62 NSCLC): 27.2 µM | GI50 (HOP-92 NSCLC): 2.11 µM | TGI (HOP-92 NSCLC): 18.4 µM | GI50 (HS 578T breast): 4.72 µM | TGI (HS 578T breast): 28 µM | GI50 (HT29 colon): 3.31 µM | TGI (HT29 colon): 13.9 µM | GI50 (IGROV1 ovarian): 3.64 µM | TGI (IGROV1 ovarian): 16.3 µM | GI50 (K-562 leukemia): 2.95 µM | TGI (K-562 leukemia): 9.37 µM | GI50 (KM12 colon): 9.65 µM | TGI (KM12 colon): 23 µM | GI50 (LOX IMVI melanoma): 5.34 µM | TGI (LOX IMVI melanoma): 18.8 µM | GI50 (M14 melanoma): 3.1 µM | TGI (M14 melanoma): 9.65 µM | GI50 (MALME-3M melanoma): 1.96 µM | TGI (MALME-3M melanoma): 4.17 µM | GI50 (MCF7 breast): 5.35 µM | TGI (MCF7 breast): 23.1 µM | GI50 (MDA-MB-231 breast): 5.89 µM | TGI (MDA-MB-231 breast): 17 µM | GI50 (MDA-MB-435): 4.87 µM | TGI (MDA-MB-435): 18.2 µM | GI50 (MOLT-4 leukemia): 3.66 µM | TGI (MOLT-4 leukemia): 19.4 µM | GI50 (NCI-H226 lung): 2.57 µM | TGI (NCI-H226 lung): 24.8 µM | GI50 (NCI-H23 lung): 11.1 µM | TGI (NCI-H23 lung): 30.1 µM | GI50 (NCI-H460 lung): 6.85 µM | TGI (NCI-H460 lung): 20.8 µM | GI50 (NCI-H522 lung): 6.45 µM | TGI (NCI-H522 lung): 18.4 µM | GI50 (NCI/ADR-RES ovarian): 8.01 µM | TGI (NCI/ADR-RES ovarian): 27.3 µM | GI50 (OVCAR-3 ovarian): 11.9 µM | TGI (OVCAR-3 ovarian): 25 µM | GI50 (OVCAR-4 ovarian): 1.84 µM | TGI (OVCAR-4 ovarian): 25.5 µM | GI50 (OVCAR-5 ovarian): 15.5 µM | TGI (OVCAR-5 ovarian): 31.4 µM | GI50 (OVCAR-8 ovarian): 5.53 µM | TGI (OVCAR-8 ovarian): 26.6 µM | GI50 (PC-3 prostate): 7.3 µM | TGI (PC-3 prostate): 26 µM | GI50 (RPMI-8226 leukemia): 4.92 µM | TGI (RPMI-8226 leukemia): 27.9 µM | GI50 (RXF 393 renal): 1.63 µM | TGI (RXF 393 renal): 11.4 µM | GI50 (SF-268 CNS): 5.47 µM | TGI (SF-268 CNS): 21.1 µM | GI50 (SF-295 CNS): 3.59 µM | TGI (SF-295 CNS): 10.3 µM | GI50 (SF-539 CNS): 1.99 µM | TGI (SF-539 CNS): 7.16 µM | GI50 (SK-MEL-2 melanoma): 3.67 µM | TGI (SK-MEL-2 melanoma): 13 µM | GI50 (SK-MEL-28 melanoma): 4.67 µM | TGI (SK-MEL-28 melanoma): 12.4 µM | GI50 (SK-MEL-5 melanoma): 6.19 µM | TGI (SK-MEL-5 melanoma): 18 µM | GI50 (SK-OV-3 ovarian): 4.91 µM | TGI (SK-OV-3 ovarian): 18.2 µM | GI50 (SN12C renal): 3.52 µM | TGI (SN12C renal): 15.6 µM | GI50 (SNB-19 CNS): 13.7 µM | TGI (SNB-19 CNS): 28.7 µM | GI50 (SNB-75 CNS): 0.372 µM | TGI (SNB-75 CNS): 13.1 µM | GI50 (SR leukemia): 2.11 µM | TGI (SR leukemia): 5.68 µM | GI50 (SW-620 colon): 8.15 µM | TGI (SW-620 colon): 23 µM | GI50 (T-47D breast): 10.8 µM | TGI (T-47D breast): 29.3 µM | GI50 (TK-10 renal): 6.77 µM | TGI (TK-10 renal): 21.1 µM | GI50 (U251 CNS): 2.77 µM | TGI (U251 CNS): 17.5 µM | GI50 (UACC-257 melanoma): 1.78 µM | TGI (UACC-257 melanoma): 3.68 µM | GI50 (UACC-62 melanoma): 4.2 µM | TGI (UACC-62 melanoma): 15.1 µM | GI50 (UO-31 renal): 1.37 µM | TGI (UO-31 renal): 15.5 µM
